Experiment [1] concerns Streptococcus pneumoniae. The experiment is described as follows: Antibacterial activity against multidrug resistant Streptococcus pneumoniae […] by CLSI microdilution susceptibility testing method. It counts as functional.
Experiment [2] has as its system Streptococcus pneumoniae. The experiment can be described thus: Antibacterial activity against multidrug resistant Streptococcus pneumoniae […] assessed as resistant strains by CLSI microdilution susceptibility testing method. It counts as functional. On the technique in general: Broth dilution looks for growth in wells or tubes with falling amounts of substance.

Converted amounts (≈) assume the structure as drawn.

One may read the MIC50 as the lowest concentration that inhibits either 50% of growth or 50% of the strains tested, depending on the study. A higher MIC50 goes with weaker potency. The term MIC90 denotes the lowest concentration that inhibits either 90% of growth or 90% of the strains tested, depending on the study. Read a high MIC90 as weaker potency. In the experiment on Streptococcus pneumoniae [1], `COc1cc(Cc2cnc(N)nc2N)c2cc(Cc3c(C(=O)N(C)C)[nH]c4ccc(Cl)cc34)oc2c1OC` yielded an MIC50 of 0.25 µg/mL (≈ 0.467 µM) and an MIC90 of 0.5 µg/mL (≈ 0.935 µM).

On to `CC1(C)S[C@@H]2[C@H](NC(=O)[C@H](N)c3ccc(O)cc3)C(=O)N2[C@H]1C(=O)O` [AMOXICILLIN], for which, in the experiment on Streptococcus pneumoniae [1], the MIC50 is 2 µg/mL (≈ 5.47 µM) and the MIC90 came out at 8 µg/mL (≈ 21.9 µM). In addition, the Activity with Streptococcus pneumoniae [2] was 48.2%.

On to `CO/N=C(\C(=O)N[C@@H]1C(=O)N2C(C(=O)O)=C(COC(C)=O)CS[C@H]12)c1csc(N)n1` [CEFOTAXIME], for which, in the experiment with Streptococcus pneumoniae [1], the MIC50 was 1 µg/mL (≈ 2.2 µM) and the MIC90 was found to be 2 µg/mL (≈ 4.39 µM). Moreover, the Activity with Streptococcus pneumoniae [2] was 41.1%.

In the experiment on Streptococcus pneumoniae [1], `CCC[C@@H]1C[C@@H](C(=O)N[C@@H]([C@H]2O[C@H](SC)[C@H](O)[C@@H](O)[C@H]2O)[C@H](C)Cl)N(C)C1` [CLINDAMYCIN] showed an MIC50 of 0.06 µg/mL (≈ 0.141 µM) and an MIC90 greater than 8 µg/mL. Also, in the experiment on Streptococcus pneumoniae [2], the Activity turned out to be 34.8%.

For the compound `C[C@H]1c2cccc(O)c2C(=O)C2=C(O)[C@]3(O)C(=O)C(C(N)=O)=C(O)[C@@H](N(C)C)[C@@H]3[C@@H](O)[C@@H]21.O` [DOXYCYCLINE], in the experiment with Streptococcus pneumoniae [1], the MIC50 is 0.12 µg/mL and the MIC90 was 8 µg/mL. Also, the Activity with Streptococcus pneumoniae [2] is on record as 40.6%.

In the experiment on Streptococcus pneumoniae [1], `CC[C@H]1OC(=O)[C@H](C)[C@@H](O[C@H]2C[C@@](C)(OC)[C@@H](O)[C@H](C)O2)[C@H](C)[C@@H](O[C@@H]2O[C@H](C)C[C@H](N(C)C)[C@H]2O)[C@](C)(O)C[C@@H](C)C(=O)[C@H](C)[C@@H](O)[C@]1(C)O` [ERYTHROMYCIN] gave an MIC50 of 8 µg/mL (≈ 10.9 µM) and an MIC90 greater than 32 µg/mL. Also, in the experiment with Streptococcus pneumoniae [2], the Activity is listed as 83.5%.

With `C[C@H]1COc2c(N3CCN(C)CC3)c(F)cc3c(=O)c(C(=O)O)cn1c23.C[C@H]1COc2c(N3CCN(C)CC3)c(F)cc3c(=O)c(C(=O)O)cn1c23.O` [LEVOFLOXACIN], in the experiment on Streptococcus pneumoniae [1], the MIC50 is 1 µg/mL and the MIC90 was greater than 8 µg/mL. Besides, the Activity in the experiment on Streptococcus pneumoniae [2] is given as 21%.

As for `C[C@@H](O)[C@H]1C(=O)N2C(C(=O)O)=C(S[C@@H]3CN[C@H](C(=O)N(C)C)C3)[C@H](C)[C@H]12` [MEROPENEM], in the experiment on Streptococcus pneumoniae [1], the MIC50 stood at 0.5 µg/mL (≈ 1.3 µM) and the MIC90 was 1 µg/mL (≈ 2.61 µM). Besides, the Activity in the experiment with Streptococcus pneumoniae [2] is 75.9%.

On to `CC1(C)S[C@@H]2[C@H](NC(=O)Cc3ccccc3)C(=O)N2[C@H]1C(=O)O` [PENICILLIN G], for which, in the experiment on Streptococcus pneumoniae [1], the MIC50 came to 4 µg/mL (≈ 12 µM) and the MIC90 came to 4 µg/mL (≈ 12 µM). In addition, in the experiment on Streptococcus pneumoniae [2], the Activity is 85.7%.
